Reference: publication PMC5567048, “A novel c-di-GMP binding domain in glycosyltransferase BgsA is responsible for the synthesis of a mixed-linkage β-glucan” (Scientific Reports, 2017)
Changes are numbered by the printed parent chain.

Experiments:
[1] = molecular target: T1, C-BgsA (Sinorhizobium meliloti, UniProt Q92WG2, G635V); assay: SPR direct binding, immobilised ligand
T1 construct: gene SM_b20391
T1 sequence (Q92WG2 526-664 G635V): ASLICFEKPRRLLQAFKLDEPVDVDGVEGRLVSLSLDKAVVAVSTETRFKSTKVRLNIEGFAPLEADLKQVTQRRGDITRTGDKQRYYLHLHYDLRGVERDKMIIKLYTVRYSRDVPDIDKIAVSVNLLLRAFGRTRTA

[2] = molecular target: T2, C-BgsA (Sinorhizobium meliloti, UniProt Q92WG2); assay: SPR direct binding, immobilised ligand
T2 construct: gene SM_b20391
T2 sequence (Q92WG2 526-664): T1 sequence (Q92WG2 526-664 G635V) with V110G

[3] = molecular target: T3, C-BgsA (Sinorhizobium meliloti, UniProt Q92WG2, G635R); assay: SPR direct binding, immobilised ligand
T3 construct: gene SM_b20391
T3 sequence (Q92WG2 526-664 G635R): T1 sequence (Q92WG2 526-664 G635V) with V110R

[4] = molecular target: T2, C-BgsA; assay: SPR solution competition against immobilised […]′-AHC-c-di-GMP chip; format: binding; details: weak competitor; c-di-GMP at the same concentration gave 98%; 20 mM MOPS pH 8.0, 300 mM NaCl, 25 °C
[5] = molecular target: T2, C-BgsA; assay: as above; format: binding
[6] = molecular target: T4, C-BgsA (Sinorhizobium meliloti, UniProt Q92WG2, H615A); assay: as above; format: binding
T4 construct: gene SM_b20391

[7] = molecular target: T5, C-BgsA (Sinorhizobium meliloti, UniProt Q92WG2, R605A); assay: as above; format: binding
T5 construct: gene SM_b20391

[8] = molecular target: T6, C-BgsA (Sinorhizobium meliloti, UniProt Q92WG2, R656A); assay: as above; format: binding
T6 construct: gene SM_b20391

[9] = molecular target: T7, C-BgsA (Sinorhizobium meliloti, UniProt Q92WG2, Y633A); assay: as above; format: binding
T7 construct: gene SM_b20391

[10] = molecular target: T8, C-BgsA (Sinorhizobium meliloti, UniProt Q92WG2, R599A); assay: as above; format: binding
T8 construct: gene SM_b20391

[11] = molecular target: T9, C-BgsA (Sinorhizobium meliloti, UniProt Q92WG2, D608A); assay: as above; format: binding
T9 construct: gene SM_b20391
T9 sequence (Q92WG2 entry or part of it D608A): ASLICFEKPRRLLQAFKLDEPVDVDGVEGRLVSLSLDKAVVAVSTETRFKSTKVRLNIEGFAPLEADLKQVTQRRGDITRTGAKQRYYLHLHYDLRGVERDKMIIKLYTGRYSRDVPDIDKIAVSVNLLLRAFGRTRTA

T5 sequence (Q92WG2 entry or part of it R605A): as the sequence (Q92WG2 entry or part of it D608A) above, with R80A, A83D counted along it
T8 sequence (Q92WG2 entry or part of it R599A): as the sequence (Q92WG2 entry or part of it D608A) above, with R74A, A83D counted along it
T4 sequence (Q92WG2 entry or part of it H615A): as the sequence (Q92WG2 entry or part of it D608A) above, with A83D, H90A counted along it
T7 sequence (Q92WG2 entry or part of it Y633A): as the sequence (Q92WG2 entry or part of it D608A) above, with A83D, Y108A counted along it
T6 sequence (Q92WG2 entry or part of it R656A): as the sequence (Q92WG2 entry or part of it D608A) above, with A83D, R131A counted along it

## NCCCCCCNC(=O)O[C@@H]1[C@@H]2OP(=O)(O)OC[C@H]3O[C@@H](n4cnc5c(=O)[nH]c(N)nc54)[C@H](O)[C@@H]3OP(=O)(O)OC[C@H]2O[C@H]1n1cnc2c(=O)[nH]c(N)nc21 [2′-AHC-c-di-GMP]
[1]
  Kd: 140 nM
[2]
  Kd: 230 nM
[3]
  Kd: 190 nM

## Nc1ncnc2c1ncn2[C@@H]1O[C@@H]2COP(=O)(O)O[C@H]3[C@@H](O)[C@H](n4cnc5c(N)ncnc54)O[C@@H]3COP(=O)(O)O[C@H]2[C@H]1O [c-di-AMP]
[4]
  % reduction of C-BgsA binding at 500 μM: 17%

## Nc1nc2c(ncn2[C@@H]2O[C@@H]3CO[P@](=O)(O)O[C@H]4[C@@H](O)[C@H](n5cnc6c(=O)[nH]c(N)nc65)O[C@@H]4CO[P@](=O)(O)O[C@H]3[C@H]2O)c(=O)[nH]1 [c-di-GMP]
[5]
  EC50: 270 ± 10 nM
[6]
  EC50: 292000 ± 73000 nM
[7]
  EC50: 140 ± 10 nM
[8]
  EC50: 400 ± 50 nM
[9]
  EC50: 230 ± 10 nM
[10]
  EC50: 372000 ± 114000 nM
[11]
  EC50: 270 ± 70 nM
